Measured values as given in patent US8350036B2, “Bisnaphthalimidopropyl derivative compounds with anti-parasite and anti-cancer activity” (Universidade Do Porto, priority 2006, dated 2013).
Read-outs that look alike come from different tables or passages of the source.

Key:
Solubility = type: physicochemical; settings: effect of longer alkyl central chain
CaCo-2 colon carcinoma = assay: Cytotoxicity against CaCo-2 cells by MTT assay; type: cell-based; settings: Homo sapiens, 0.01-40 μM
Protocol: Cytotoxity was evaluated for CaCo-2 colon carcinoma using the MTT assay with protocols appropriate for the individual test system.^11,13 CaCo-2 cells were maintained in Earle's Minimum Essential Medium (Sigma), supplemented with 10% fetal calf serum (Biosera), 2 mM L-glutamine (Sigma), 1% non-essential amino acids (Sigma), 100 IU mL^−1 penicillin and 100 μg mL^−1 streptomycin (Sigma). Exponentially growing cells were plated at 2×10^4 cells cm^−2 into 96-well plates and incubated for 24 h before the addition of drugs. Stock solutions of compounds were initially dissolved in 20% DMSO and further diluted with fresh complete medium. After 24 and 48 h of incubation at 37° C., the medium was removed and 200 μl of MTT reagent (1 mg/mL) in serum free medium was added to each well. The plates were incubated at 37° C. for 4 h. At the end of the incubation period, the medium was removed and pure DMSO (200 μl) was added to each well. The metabolized MTT product dissolved in DMSO was quantified by reading the absorbance at 560 nm on a micro plate reader (Dynex Technologies, USA). IC50 values are defined, as the drug concentrations required to reduce the absorbance by 50% of the control values. The IC50 values were calculated from the equation of the logarithmic line determined by fitting the best line (Microsoft Excel) to the curve formed from the data. The IC50 value was obtained from the equation for y=50 (50% value).

[1] = test system: intracellular amastigotes of L. infantum; assay: Intracellular amastigotes in differentiated THP-1 cells (luciferase assay); type: cell-based, Leishmania infantum; settings: for IC50: Leishmania infantum, intracellular amastigotes in THP-1 cells, 72 h of incubation, read-out: IC50(μM) Amastigote intracellular; for parasite growth inhibition, intracellular amastigote: range of concentration 0.39 to 12.50 μM
Protocol: (§1) The axenic amastigote of Leishmania infantum (clone MHOM/MA671TMA-P263) transfected with reporter gene that encode to the luciferase enzyme (Roy et al, 2000) were grown at 37° C. with 5% CO2 in a cell-free medium called MAA (medium for axenically grown amastigote). The medium MAA/20, consisted of modified medium 199 (Hanks' balanced salts) supplemented with 0.5% soya trypto-casein, 15 mM D-glucose, 5 mM L-glutamine, 4 mM NaHCO3, 0.023 mM bovine hemin, 25 mM HEPES final pH, 6.5 and 20% inactivated fetal calf serum. The parasites were incubated with different concentrations during 3 days at 37° C. with 5% CO2. The growth of the parasites was done by measuring the luciferase activity using luciferin as a substract. The intracellular amastigotes of L. infantum were cultured in a macrophage differentiated human leukemia monocyte cell line (THP-1 cells). The THP-1 cells were differentiated during 2 days with 20 ng/ml of PMA in RPMI-1640 medium supplemented with 10% FCS, 2 mM glutamine, 100 IU of penicillin/ml and 100 μg/ml of streptomycin. The non differentiated cells were washed with prewarmed medium and the adherent cells sinfected with luciferase-expressing axenic amastigotes at a parasite/macrophage ratio of 3:1 for 4 h at 37° C. with 5% CO2. Noninternalized parasites were removed and serial dilutions of each drug were made in the RPMI medium supplemented with 10% FCS. After 3 days of drug exposure, wells containing adherent differentiated THP-1 cells were washed and luciferase activity was determined.
Cytotoxicity determined by luciferase assay. […] The results were representative of medium±SD at least 5 assays.

[2] = test system: axenic amastigote of Leishmania infantum; assay: Growth of luciferase-expressing axenic amastigotes (luciferase assay); type: cell-based; settings: for parasite growth inhibition, axenic amastigote: FIG. 1; for IC50: Leishmania infantum, axenic amastigotes, 72 h of incubation, 37° C.
Protocol: as §1
FIG. 1. […] The results are representative of 5 assays made independently. The promastigote and axenic amastigote were incubated with a serial range of drug concentrations 0.30 to 12.5 μM, at 27° C. and 3.125 to 100 μM at 37° C. in 5% CO2, respectively, during 3 days. The growth curves represented indicate the percentage growth related to the control for each concentration after luciferase activity determination. Each point represents a mean of 3 assays±STD.
(§2) Cytotoxicity determined by luciferase assay. The results were obtained after treatment of different parasite forms with a range of different drug concentrations 0.30 to 100 μM after 72 h of incubation. The results were representative of medium±SD at least 5 assays.

[3] = test system: Leishmania infantum promastigotes; assay: Growth of luciferase-expressing promastigotes (luciferase assay); type: cell-based; settings: for IC50: Leishmania infantum; for parasite growth inhibition, promastigote: range of concentration 0.39 to 12.50 μM, FIG. 1
Protocol: Leishmania infantum (clone MHOM/MA671TMA-P263) promastigotes transfected with reporter gene that encode to the luciferase enzyme (Roy et al, 2000) were grown at 27° C. in RPMI medium (Gibco) supplemented with 10% of heat inactivated fetal bovine serum (FBS-Gibco), 2 mM L-glutamine (Gibco), 20 mM Hepes (Gibco), 100 U/ml penicillin (Gibco) and 100 μg/ml streptomycin (Gibco). The parasites (10^6/ml) in the logarithmic phase (2 days of culture) were incubated with a serial range of concentrations of each drug for 3 days at 27° C. and the growth of parasites was determined by using the luciferase activity using luciferin as subtract.
FIG. 1. […] The results are representative of 5 assays made independently. […] The growth curves represented indicate the percentage growth related to the control for each concentration after luciferase activity determination. Each point represents a mean of 3 assays±STD.
as §2

[4] = most solvents; previously reported (Kong et al, 2000); cited from earlier work
[5] = 24 h drug exposure, read-out: IC50 (μM) 24 h
[6] = 48 h drug exposure, read-out: IC50 (μM) 48 h
[7] = promastigote, unit inferred, read-out: IC50±SD promastigote
[8] = promastigotes, 72 h of incubation, 27° C., read-out: IC50(μM) Promastigotes

| Compound | aqueous solubility (Solubility) | IC50 (CaCo-2 colon carcinoma; [5]) [µM] | IC50 (CaCo-2 colon carcinoma; [6]) [µM] | IC50 [1] [µM] | parasite growth inhibition, intracellular amastigote [1] | parasite growth inhibition, axenic amastigote [2] | IC50 [2] [µM] | IC50 [3, 7] [µM] | IC50 [3, 8] [µM] | parasite growth inhibition, promastigote [3] | solubility [4] |
| --- | --- | --- | --- | --- | --- | --- | --- | --- | --- | --- | --- |
| O=C1c2cccc3cccc(c23)C(=O)N1CCCNCCCCCCCCCCNCCCN1C(=O)c2cccc3cccc(c23)C1=O [BNIPDadec, Bisnaphthalimidopropyldiaminodecane] | helps aqueous solubility | 0.77 | 0.36 |  |  |  |  |  |  |  |  |
| O=C1c2cccc3cccc(c23)C(=O)N1CCCNCCCCCCCCCCCCNCCCN1C(=O)c2cccc3cccc(c23)C1=O [BNIPDadod, Bisnaphthalimidopropyldiaminododecane] |  | 4.5 | 2.7 |  |  |  |  |  |  |  |  |
| O=C1c2cccc3cccc(c23)C(=O)N1CCCNCCCCCCCNCCCN1C(=O)c2cccc3cccc(c23)C1=O [BNIPDahep, Bisnaphthalimidopropyldiaminoheptane] |  | 3.2 | 0.94 |  |  |  |  |  |  |  |  |
| O=C1c2cccc3cccc(c23)C(=O)N1CCCNCCCCCCNCCCN1C(=O)c2cccc3cccc(c23)C1=O [BNIPDahex, Bisnaphthalimidopropyldiaminohexane] |  | 0.65 | 2 |  |  |  |  |  |  |  |  |
| O=C1c2cccc3cccc(c23)C(=O)N1CCCNCCCCCCCCCNCCCN1C(=O)c2cccc3cccc(c23)C1=O [BNIPDanon, Bisnaphthalimidopropyldiaminononane] | helps aqueous solubility | 3.6 | 0.67 | 6.03 ± 0.67 | dose dependent inhibition of parasite growth | dose dependent inhibition of parasite growth | 17.4 ± 0.97 | 2.09 ± 0.54 | 2.09 ± 0.54 | dose dependent inhibition of parasite growth |  |
| O=C1c2cccc3cccc(c23)C(=O)N1CCCNCCCCCCCCNCCCN1C(=O)c2cccc3cccc(c23)C1=O [BNIPDaoct, Bisnaphthalimidopropyldiaminooctane] | helps aqueous solubility | 6.2 | 3.2 | 2.43 ± 0.19 | dose dependent inhibition of parasite growth | didn't inhibited the parasite growth up to 50 μM | ≥ 50 | ≤ 0.39 | ≤ 0.39 | dose dependent inhibition of parasite growth |  |
| O=C1c2cccc3cccc(c23)C(=O)N1CCCNCCCCCNCCCN1C(=O)c2cccc3cccc(c23)C1=O [BNIPDapen, Bisnaphthalimidopropyldiaminopentane] |  | 11 | 6.5 |  |  |  |  |  |  |  |  |
| O=C1c2cccc3cccc(c23)C(=O)N1CCCNCCNCCNCCCN1C(=O)c2cccc3cccc(c23)C1=O [BNIPDeta, Bisnaphthalimidopropyldietiltriamine] |  | 21.7 | 22.3 | 9.52 ± 0.56 | dose dependent inhibition of parasite growth | dose dependent inhibition of parasite growth | 6.97 ± 0.2 | 0.96 ± 0.17 | 0.96 ± 0.17 | dose dependent inhibition of parasite growth |  |
| O=C1c2cccc3cccc(c23)C(=O)N1CCCNCCCNCCCNCCCN1C(=O)c2cccc3cccc(c23)C1=O [BNIPDpta, Bisnaphthalimidopropyldipropiltriamine] |  | 5 | 3.2 | 4.22 ± 1.07 | dose dependent inhibition of parasite growth | dose dependent inhibition of parasite growth | 5.24 ± 0.93 | 1.09 ± 0.12 | 1.09 ± 0.12 | dose dependent inhibition of parasite growth |  |
| O=C1c2cccc3cccc(c23)C(=O)N1CCCNCCCCNCCCN1C(=O)c2cccc3cccc(c23)C1=O [BNIPPut, Bisnaphthalimidopropylputrescine] |  |  |  | 4.53 ± 0.54 | dose dependent inhibition of parasite growth | dose dependent inhibition of parasite growth | 5.49 ± 0.67 | 0.4 ± 0.15 | 0.4 ± 0.15 | dose dependent inhibition of parasite growth | not soluble in most solvents |
| O=C1c2cccc3cccc(c23)C(=O)N1CCCNCCCCNCCCNCCCN1C(=O)c2cccc3cccc(c23)C1=O [BNIPSpd, Bisnaphthalimidopropylespermidine] |  | 0.15 | 0.47 | 8.92 ± 1.07 | dose dependent inhibition of parasite growth | dose dependent inhibition of parasite growth | 9.61 ± 1.84 | 1.86 ± 0.82 | 1.86 ± 0.82 | dose dependent inhibition of parasite growth |  |
